Read-outs that look alike come from different tables or passages of the source.
Assays:
[1] = Plasma protein binding (fup), rapid equilibrium dialysis; format: in vitro ADME, human
Description: (differing in 2 donors) were used for activity and microsomal binding assays, respectively.
The human biological samples were sourced ethically, and their research use was in accord with the terms of the informed consents under an IRB/EC approved protocol.
Determination of plasma protein binding (fup):
Human plasma (male, K2EDTA) was obtained from BioIVT (Baltimore, MD, USA). A pool of n=20 donors was prepared in-house (batch: 16062022). The plasma protein binding of compounds in human was determined by equilibrium dialysis using the rapid equilibrium dialysis (RED) device (Thermo […]
Frozen blank human plasma […]
solution to a final concentration of 1 µM (0.5 % DMSO). 300 µ L of the fortified plasma samples were subjected to dialysis against 500 µL PBS buffer at pH 7.4, for 6 h at 37 °C in triplicate. After dialysis, 200 µl aliquots of the buffer and the plasma compartments were transferred into micronic tubes. To minimize the potential for non -specific binding to the micronic tubes the buffer sam ples were collected on to 50µl of 10 % bovine serum albumin (BSA). For the assessment of test compound stability in plasma, 300 µl aliquots of the spiked plasma solutions were transferred into micronic tubes and incubated in an air heated incubator at 37°C without shaking for 4 and 20 hours. The remaining spiked protein solutions were frozen and used to measure the initial start concentration ( C0) to calculate the recovery. Sample analysis was achieved by LC -MS/MS and absolute quantification of the drug lev els in the buffer and plasma compartments was achieved via a matrix matched calibration curve (in the presence of an internal standard tolbutamide). All buffer and plasma sample sets were matrix matched […]
for analysis. The samples were centrifuged (15 minutes, 3400 g) and supernatants were transferred to a fresh plate for analysis. The unbound concentration (Cu), and the total concentration (CED) were determined by measurement of the concentration of the test compound in the buffer and plasma compartments of the dialysis cells, respectively. The fraction unbound was calculated using Eq. S1.
fuplasma = Cu/CED (Eq. S1)
The percentage recovery was calculated as the ratio of the sum of the amount in the buffer (Au) and plasma (AED) compartments to the amount at time zero (A0) (Eq. S2). The percentage stability was calculated as the ratio of the concentration of the test compound at the end of the incubation (C t) time […]
% recovery = (( Au + AED ) / A0 ) × 100 (Eq. S2)

[2] = In vitro permeability (Papp), transwell transport; conditions: dog, MDCK
[3] = cited from earlier work
[4] = cited from earlier work; for logP: octanol-water, 12 (per cell)
[5] = cited from earlier work; remark: listed apart in the source
[6] = cited from earlier work; for fmCYP3A4: ref suppl. 8-12; for fmAO: ref suppl. 8-13
[7] = Microsomal binding (fumic); conditions: for fumic (PBPK input): at incubation protein concentration (0.25 or 0.5 mg/mL)
Description: Microsomal binding (fumic):
(§1) The fraction unbound in human liver microsomes (fumic) of compounds was determined by equilibrium
(§2) dialysis using the high-throughput dialysis method 2 using membranes from HTDialysis, LLC (Gales
(§3) Ferry, CT) having 12 to 14 kDa molecular mass cutoff. Deactivated HLM (by leaving the HLM
(§4) incubation media on the bench overnight at ambient temperature) at 0.25 mg/mL with 2 µM of
(§5) compounds (a final concentration of DMSO as 1%) was added to the donor compartment in 50 mM
(§6) phosphate buffer containing 1 M MgCl2. (150 µL, n=4 per compound). 150 µL of Dulbecco’s PBS
(§7) buffer (pH 7.4) was added to the receiver chamber for each replicate. After reaching equilibrium for 6
(§8) h on a plate shaker (200 rpm) at 37°C in a humidified CO2 incubator (5% CO2), aliquots from both the
(§9) receiver (45 µL) and donor (15 µL) sides of the membrane were matrix matched and analyzed by LC-
(§10) MS/MS. Matrix stability (n=3) and % of recovery (n=4) were assessed.
(§11) Data analysis for binding in microsomal and cytosolic incubations:
(§12) Fraction unbound in microsomal (fumic) and cytosolic (fucyt) incubations were calculated via Eq. S10-11
(§13) based on the ratio of the peak areas of analyte and internal standard.
(§14) 𝑃𝑒𝑎𝑘 𝐴𝑟𝑒𝑎 𝑅𝑎𝑡𝑖𝑜 = (𝑃𝑒𝑎𝑘 𝐴𝑟𝑒𝑎 𝑜𝑓 𝐴𝑛𝑎𝑙𝑦𝑡𝑒)/(𝑃𝑒𝑎𝑘 𝐴𝑟𝑒𝑎 𝑜𝑓 𝐼𝑛𝑡𝑒𝑟𝑛𝑎𝑙 𝑆 tan 𝑑 𝑎𝑟𝑑) (Eq. S10)
(§15) 𝑓𝑢𝑚𝑖𝑐 𝑜𝑟 𝑓𝑢𝑐𝑦𝑡 = (𝑃𝑒𝑎𝑘 𝐴𝑟𝑒𝑎 𝑅𝑎𝑡𝑖𝑜 𝑖𝑛 𝑟𝑒𝑐𝑒𝑖𝑣𝑒𝑟 𝑐𝑜𝑚𝑝𝑎𝑟𝑡𝑚𝑒𝑛𝑡)/
(§16) concentration (0.5 mg/mL) using Hallifax and Houston algorithm (Hallifax and Houston, 2006). Matrix
(§17) stability and recovery were assessed using Eq. S12 and Eq. S13.
(§18) %𝑠𝑡𝑎𝑏𝑖𝑙𝑖𝑡𝑦 = (𝐴𝑣𝑒𝑟𝑎𝑔𝑒 𝑝𝑒𝑎𝑘 𝑎𝑟𝑒𝑎 𝑖𝑛 𝑚𝑎𝑡𝑟𝑖𝑥 𝑎𝑡 𝑡ℎ𝑒 𝑒𝑛𝑑 𝑜𝑓 𝑖𝑛𝑐𝑢𝑏𝑎𝑡𝑖𝑜𝑛)/
(§19) (𝐴𝑣𝑒𝑟𝑎𝑔𝑒 𝑝𝑒𝑎𝑘 𝑎𝑟𝑒𝑎 𝑎𝑡 𝑇 = 0) × 100 (Eq. S12)
%𝑟𝑒𝑐𝑜𝑣𝑒𝑟𝑦 = (𝐴 + 𝐵)/𝐶 × 100 (Eq. S13)
(§20) where A is the average peak area ratio of all matrix samples, B is the average peak area ratio
of all buffer samples multiplied with the buffer dilution factor and C is the average peak area ratio of

[8] = Cytosolic binding (fucyt), dog liver cytosol; conditions: 1 mg/mL, n=3, mean (CV%)
Description: In vitro data were generated to inform the PBPK models of the selected drugs (Supplement 1 in Appendix S1; Table S1). Subcellular fractions of human and dog liver were sourced from XenoTech (Kansas City, KS, USA). In vitro CLint,u was measured with substrate depletion and binding assays for all compounds (1 μM) in human liver microsomes (HLM; 0.25–0.5 mg/mL) and HLC (1 mg/mL). HLC pool was prepared from livers perfused with Custodiol HTK (histidine tryptophan ketoglutarate) solution, marketed as having preserved “high AO/XO activity.”[15] Dog liver cytosols (DLC; 1 mg/mL) were used to investigate cytosolic binding in the absence of AO. Routine in vitro assays were used to quantify unbound fraction in plasma (fup), blood‐to‐plasma ratio (B/P), and apparent permeability (Papp) through transwell transport assays utilizing canine Mdr1 knockout and empty vector‐transfected MDCKI cells.
𝐶𝐿 = 𝑘 × 𝑣𝑜𝑙𝑢𝑚𝑒 𝑜𝑓 𝑖𝑛𝑐𝑢𝑏𝑎𝑡𝑖𝑜𝑛 (Eq S9)
Cytosolic binding (fucyt):
The fraction unbound in human liver cytosols (fucyt) of compounds was determined by equilibrium
dialysis using the RED device (Thermo Fisher, Waltham MA, USA) with a molecular weight cut-off of
8 kDa. Dog or human liver cytosols at 1 mg/mL with 1 µM of compounds (300 µL, n=3 per compound)
were added to the donor compartment in 100 mM potassium phosphate buffer with final DMSO
liver cytosols to inactivate AO, whereas dog was used as a natural AO knock-out model. 500 µL of 100
mM potassium phosphate buffer (pH 7.35) was added to the receiver chamber for each replicate.
RED device was then sealed with an adhesive foil and incubated on an orbital shaker at 450 rpm (VWR
Symphony) at 37°C with 5 % CO2. After reaching equilibrium for 4 hours, aliquots from both the
receiver (30µL) and donor (30µL) sides of the membrane were matrix matched, and then quenched with
180 µL of cold ACN with 100 nM propranolol (internal standard). The samples were placed in a
Beckman Coulter Allegra x 12R Centrifuge (Brea, CA) for 15 minutes at 3700 rpm. After centrifugation,
the supernatant of each sample was diluted 1:2 and analyzed by LC -MS/ MS. Matrix stability and
recovery were assessed in triplicates and followed identical sample preparation.
Microsomal binding (fumic):
as §1, §2, §3, §4, §5, §6, §7, §8, §9, §10, §11, §12, §13, §14, §15, §16, §17, §18, §19
%𝑟𝑒𝑐𝑜𝑣𝑒𝑟𝑦 = (𝐴 + 𝐵)/𝐶 × 100 (Eq. S13)
as §20

[9] = Microsomal clearance incubations (substrate depletion); conditions: both, human
Description: Subcellular fractions of human and dog liver were sourced from XenoTech (Kansas City, KS, USA). In vitro CLint,u was measured with substrate depletion and binding assays for all compounds (1 μM) in human liver microsomes (HLM; 0.25–0.5 mg/mL) and HLC (1 mg/mL).
Microsomal clearance incubations (CLint):
Human liver microsomes were stored at −80°C and rapidly thawed just before use at 37°C.
All compounds were mixed with HLM and 50 mM
phosphate buffer. 450 µL of the mixture was added to 1.2mL cluster tubes in a 96-well block in
duplicate and warmed in a water bath (Thermo Scientific Precision™,Waltham MA, USA ) at 37°C for
5 min. Reactions were initiated by the addition of 50 µL from 10 mM of NADPH stock in 50 mM
phosphate buffer (final NADPH concentration, 1 mM). The final incubation contained 1 µM test
compound in 500 µL total volume with 0.02% DMSO. At each time point (5, 10, 20, 30, and 60 min),
60 µL of incubation mixture was added to 120 uL of quench solutions (MeOH:ACN, 1:1, v:v)
containing internal standard (0.5 µM carbutamide). The mixture was centrifuged at 3000 rpm for 20
min (Eppendorf 5810R, Hamburg, Germany). Supernatant was injected to HPLC-MS/MS with for data
Data analysis for substrate depletion assays:
Data from the microsomal and cytosolic incubations were analyzed using GraFit 7 (Erithacus Software,
Horley, UK) to determine the elimination rate constant (k), which was used in CLint calculation (Eq.
S9). A nonlinear single exponential fit was used for all compounds.
𝐶𝐿 = 𝑘 × 𝑣𝑜𝑙𝑢𝑚𝑒 𝑜𝑓 𝑖𝑛𝑐𝑢𝑏𝑎𝑡𝑖𝑜𝑛 (Eq S9)

[10] = Cytosolic binding (fucyt), human liver cytosol with AO inhibitor; conditions: 1 mg/mL; n=3, mean (CV%)
[11] = design: method as in earlier work; conditions: menadione 100 µM; ref 45 (suppl.); cited from earlier work
[12] = Blood-to-plasma ratio (B/P); format: in vitro ADME, human
Excerpt: Determination of blood to plasma ratio (B/P):
Whole human blood was collected on the day of the experiment from healthy volunteers. The collection protocol was approved by an independent ethical committee and all donors signed the consent forms. All samples were registered in the Janssen Biobank.
Prewarmed blood aliquots were mixed with the compounds (final concentrations shown in Suppl. Table 5) with a final organic DMSO solvent concentration of ≤0.1% (v/v). After gentle mixing to avoid haemolysis, blood aliquots were immediately collected for protein precipitation (1:1:8 ratios of blood sample:DMSO:ACN) and centrifugation (10 minutes, 3800 g) and the supernatant was used as a 0-minute reference blood sample. At the same time, blood aliquots were taken and centrifuged (10 minutes, 1200 g) to obtain the plasma portion. Plasma aliquots were then immediately collected for protein precipitation (1:1:8 ratios of plasma sample:DMSO:ACN) and centrifugation (10 minutes, 3800 g) and the supernatant was used as a 0-minute reference plasma sample. The remainder of the blood fraction was incubated (30 min at 37 °C). Following incubation, 30 -minute blood and plasma samples were taken and prepared as described for the reference 0-minute samples.
Mean compound concentration values (n=3 replicates) were calculated for both the blood and plasma samples. A blood-to-plasma concentration ratio was then determined using Eq. S4. […]

CYP3A4 = conditions: cited from earlier work
[13] = iv: zaleplon 5 mg (M), observed, ref suppl. 22
[14] = iv: zaleplon 5 (F), ziprasidone 5, zoniporide 80 mg, observed, ref suppl. 22,23,13
[15] = observed, ref Table S2/S3 studies
[16] = oral: capmatinib 200, idelalisib 150, lenvatinib 10, zaleplon 5 (F), ziprasidone 20 mg, observed mean or geomean (CV%), ref suppl. 8,14,16,19,22,23
[17] = oral: capmatinib 200, idelalisib 150, lenvatinib 10, zaleplon 5 (F), ziprasidone 20 mg, observed, ref suppl. 8,14,16,19,22,23
[18] = oral: capmatinib 600, zaleplon 5 (M) mg, observed, ref suppl. 8,22
[19] = observed (mass balance), min-max where uncertain
[20] = corrected with Hallifax&Houston algorithm
[21] = DDI study with rifampicin (capmatinib 400, idelalisib 150, lenvatinib 24 mg) or carbamazepine (ziprasidone 20 mg), observed, ref suppl. 15,18,21,25
[22] = with itraconazole (capmatinib 200 mg) or ketoconazole (idelalisib 400, lenvatinib 5, ziprasidone 40 mg), observed, ref suppl. 15,10,17,20,24
[23] = with rifampicin (capmatinib 400, idelalisib 150, lenvatinib 24 mg) or carbamazepine (ziprasidone 20 mg), observed, ref suppl. 15,18,21,25

Compound: CCN(C(C)=O)c1cccc(-c2ccnc3c(C#N)cnn23)c1 [Zaleplon]
- % Stability in plasma ([1]; 37°C, n=1, at 20h): 104%
- Papp A→B at 120 min, 5 µM [2]: 38.9 ×10⁻⁶ cm/s
- Papp B→A at 120 min, 5 µM [2]: 32.5 ×10⁻⁶ cm/s
- HH CLint, non-AO ([3]; with 25 μM hydralazine): 0.8[21] μL/min/10^6 hepatocytes
- logP [4]: 1.3[12]
- AUCinf [5, 13]: 71.7 (12) ng.h/mL
- Cmax [5, 13]: 61.4 (26.4) ng/mL
- AUCinf [5, 14]: 100 (24) ng.h/mL
- Cmax [5, 14]: 62.7 (23.8) ng/mL
- CLRenal [5, 15]: Negligible
- Cmax [5, 16]: 14.4 (38.9) ng/mL
- AUCinf [5, 17]: 31.4 (57.3) ng.h/mL
- AUCinf [5, 18]: 22.5 (45.8) ng.h/mL
- Cmax [5, 18]: 14.5 (45.5) ng/mL
- fmCYP3A4 [6, 19]: 26-43
- fmCYP3A4 (maximum) ([6]; ref suppl. 9-11): 0.43
- fmCYP3A4 (minimum) ([6]; ref suppl. 9-11): 0.26
- fumic (PBPK input) [7]: 0.964
- Predicted fumic for 1 mg/mL [7, 20]: 0.932
- fucyt, Dog Liver Cytosol ([8]; no AO inhibitor): 1
- fucyt, Dog Liver Cytosol with 50 uM Hydralazine [8]: 0.84 (3.63)
- microsomal CLint at 1 µM ([9]; microsomes): 5.95 µL/min/mg
- fucyt, Human Liver Cytosol with 5 uM Raloxifene [10]: 0.846 (1.87)
- fucyt, Human Liver Cytosol with 50 uM Hydralazine [10]: 1 (1.10)

Compound: CC1=CC(=O)c2ccccc2C1=O [menadione]
- inhibition of ziprasidone reduction [11]: 90%

Compound: O=C1Cc2cc(CCN3CCN(c4nsc5ccccc45)CC3)c(Cl)cc2N1 [Ziprasidone]
- % Stability in plasma ([1]; male, human, plasma, 20 h, 1 µM): 96.2%
- B/P ([12]; 50 ng/mL): 0.44
- B/P ([12]; 1000 ng/mL): 0.47
- B/P (assumed PBPK input) ([12]; assumed from measured 0.455): 0.55
- Papp A→B at 120 min, 5 µM [2]: 3.15 ×10⁻⁶ cm/s
- Papp B→A at 120 min, 5 µM [2]: 0.843 ×10⁻⁶ cm/s
- efflux ratio at 120 min, 5 µM [2]: 0.268
- Cmax, control (CYP3A4; DDI study with itraconazole (capmatinib 200 mg) or ketoconazole (idelalisib 400, lenvatinib 5, ziprasidone 40 mg), observed geomean (CV%), ref suppl. 15,10,17,20,24): 89 (30) ng/mL
- AUCinf, control (CYP3A4; DDI study with itraconazole (capmatinib 200 mg) or ketoconazole (idelalisib 400, lenvatinib 5, ziprasidone 40 mg), observed, ref suppl. 15,10,17,20,24): 899 (20) ng.h/mL
- AUCinf, control (AUC0-12 for ziprasidone) (CYP3A4; [21]): 495 (26) ng.h/mL
- Cmax, control (CYP3A4; [21]): 79 (24) ng/mL
- AUCinf, interaction (CYP3A4; [22]): 1199 (18) ng.h/mL
- Cmax, interaction (CYP3A4; [22]): 119 (25) ng/mL
- AUCinf, interaction (AUC0-12 for ziprasidone) (CYP3A4; [23]): 285 (28) ng.h/mL
- Cmax, interaction (CYP3A4; [23]): 48 (27) ng/mL
- HH CLint (no reaction phenotyping) ([3]; without inhibitor): 21.8[5], ^f μL/min/10^6 hepatocytes
- pKa1 ([4]; 47 (per cell)): 8.24[12]
- pKa2 ([4]; 47 (per cell)): 6.31[12]
- logP [4]: 4.53[12]
- CLiv/oral [CV%] ([5]; i.v., ref Table S2/S3 studies): 23.04 [14] (i.v.) L/h
- AUCinf [5, 14]: 217 (20) ng.h/mL
- Cmax [5, 14]: 83 (21) ng/mL
- CLRenal [5, 15]: Negligible
- Cmax [5, 16]: 64 (28) ng/mL
- AUCinf [5, 17]: 514 (27) ng.h/mL
- fmAO ([6]; measured in excreta): 0.67
- fmAO ([6]; observed (mass balance), min-max where uncertain, Table S10): 67
- fmCYP3A4 [6, 19]: 33
- fmCYP3A4 [6]: 0.33
- fumic (PBPK input) [7]: 0.210
- Predicted fumic for 0.5 mg/mL [7, 20]: 0.118
- Predicted fumic for 1 mg/mL [7, 20]: 0.063
- fucyt, Dog Liver Cytosol with 50 uM Hydralazine [8]: 0.288 (3.81)
- microsomal CLint at 1 µM ([9]; liver microsomes): 71.9 µL/min/mg
- fucyt, Human Liver Cytosol with 5 uM Raloxifene [10]: 0.337 (4.82)
- fucyt, Human Liver Cytosol with 50 uM Hydralazine [10]: 0.356 (2.53)

Source: publication PMC11706420, “Establishing a physiologically based pharmacokinetic framework for aldehyde oxidase and dual aldehyde oxidase‐CYP substrates” (CPT: Pharmacometrics & Systems Pharmacology, 2024)
